# Test results as given in US4895937A, “5-ioso-2-pyrimidinone nucleoside” (The Research Foundation of State University of New York, priority 1988, dated 1990).
# System: HSV-2 (strain 333)
# Assay: Antiviral activity, HSV-2 plaque reduction (Example 8 Part A)
# Type: cell-based
# Description: The effects of 1-(2-Deoxy-β-D-ribofuranosyl)-5-iodo-2-pyrimidinone (IPdR) of Example 3 were compared with 1-(2-Deoxy-β-D-ribofuranosyl)-5-fluoro-2-pyrimidinone (FPdR) on HSV-2 (strain 333) in […]. Twenty four well plates (sterile) were plated with 10^6 Vero cells/well the day before infecting. 250 PFU of HSV-2 were used in each well. The test compounds, IPdR and FPdR, were added at zero times of post infection and the cultures incubated at 37° C. for 48 hours. At the end of the incubation period the media was removed from Vero cells. Plates were strained with 0.8% crystal violet in 50% ethanol for 15 minutes. The plaque was counted.
smiles,measurement,setting,value
"O=c1ncc(I)cn1[C@H]1C[C@H](O)[C@@H](CO)O1 [IPdR, 1-(2-Deoxy-β-D-Ribofuranosyl)-5-iodo-2-pyrimidinone]","antiviral activity, comparison of IPdR and FPdR",,comparable in antiviral activity
same,inhibition at 100 µM,"Human alphaherpesvirus 2, Vero, 100 μM, 48 hours",51.1%
